Data as given in EP4660196A1, “CRYSTAL FORM OF COMPOUND, PREPARATION METHOD THEREFOR AND USE THEREOF” (Felicamed Biotechnology Co., Ltd., priority 2023, dated 2024).
“And” between values parts separate entries of the source, which are not always exact repeats. Identical values can stand only once. Counter-ions that a name gives are not always drawn. Like-named read-outs stand apart in the source and are kept apart here.

What was measured:
[1] = format: physicochemical; settings: 37°C; for S: solubility: calculated as free form; for pH: pH of filtrate
[2] = format: physicochemical; settings: 24 h; for S: solubility / pH: room temperature; for S: solubility: calculated as free form; for FC: crystal transfer: XRPD of solid; for pH: pH of filtrate
[3] = DVS
Description: DVS isotherms were collected on an SMS (Surface Measurement Systems) DVS Intrinsic. Relative humidity at 25°C was calibrated using the deliquescence points of LiCl, Mg(NO3)2, and KCl. Table 9 DVS testing parameters

[4] = for Carr index: (tapped density - bulk density) / tapped density; for Average angle of repose (°) / Average bulk density / Average tapped density: mean of three tests
Description: A method for testing the density and the tapped density included: (1) a certain mass of to-be-assessed sample was placed into a 5 mL measuring cylinder, and the volume at this moment was recorded. The bulk density was calculated by dividing the mass of the sample by the volume at this moment. (2) The measuring cylinder was slightly tapped 200 times, the final volume was recorded, and the tapped density was calculated by dividing the mass of the sample by the final volume. (3) Three parallel tests were conducted. A method for testing the angle of repose included: (1) a funnel was fixed vertically to a bottom surface, and the material was slowly placed into the funnel. (2) A well-proportioned cone of the material was formed on the bottom surface. The height and bottom surface diameter of the cone were measured. (3) Three parallel tests were conducted.
Angle of repose α = […], where h is the cone height, and D is the cone diameter.

[5] = Mechanical stability (grinding, tableting at 350 MPa, XRPD); format: physicochemical
[6] = Pharmacokinetics of hydrochloride crystal form A in Beagle dogs (intragastric); format: in vivo; settings: dog
Description: Three 31-month-old male Beagle dogs used in this experiment were purchased from Beijing Marshall Bioresources Co., Ltd., with the animal qualification certificate No. 110318201100056783.
In this experiment, three male Beagle dogs were randomly selected for administration. All the animals were fasted for at least 12 h before administration and were fed again 4 h after administration. […] Table 28 Administration methods for animals
The blood samples from the animals were collected through the jugular vein, with a blood sample volume of 0.5 mL/time. All collected whole blood samples were placed in centrifuge tubes containing EDTA-K2, and the centrifuge tubes were turned upside down to allow the anticoagulant and blood to be fully mixed. All the blood samples were placed on wet ice before centrifugation and centrifuged at 1500 g for 10 min to separate plasma. The plasma samples were transferred to sample tubes and stored at -40°C to […] until analysis.
The drug concentration in the plasma of each Beagle dog was detected by an LC-MS/MS method. […]

[7] = Solid-state stability (XRPD, UPLC purity); settings: for Crystal form Transform: XRPD; for Purity (area%): starting purity 99.82 (hydrochloride), 99.72 (free); for Area (%): UPLC main peak (#Peak 1, RRT 1.00)
[8] = listed as hydrochloride crystal form A
[9] = single values of three parallel tests

CC[S@@](=N)(=O)C[C@H]1CC[C@H](N(C)c2ncnc3[nH]ccc23)CC1 [Hydrochloride crystal form A]
S: solubility ([1]; FaSSIF, 1 h, 60 min): >9500 µg/mL | S: solubility ([1]; FaSSIF, 2 h, 120 min): >9700 µg/mL | S: solubility ([1]; FaSSIF, 4 h, 240 min): >9800 µg/mL | S: solubility ([1]; FaSSIF, 24 h, 1440 min): >9600 µg/mL | S: solubility ([1]; FeSSIF, 1 h, 60 min): >10400 µg/mL | S: solubility ([1]; FeSSIF, 2 h, 120 min): >10200 µg/mL | S: solubility ([1]; FeSSIF, 4 h, 240 min): >10200 µg/mL | S: solubility ([1]; FeSSIF, 24 h, 1440 min): >10000 µg/mL | S: solubility ([1]; H2O, 1 h, 60 min): >9300 µg/mL | S: solubility ([1]; H2O, 4 h, 240 min): >9500 µg/mL | S: solubility ([1]; SGF, 1 h, 60 min): >9800 µg/mL | S: solubility ([1]; SGF, 2 h, 120 min): >9900 µg/mL | S: solubility ([1]; SGF, 4 h, 240 min): >9800 µg/mL | S: solubility ([1]; SGF, 24 h, 1440 min): >10300 µg/mL | pH ([1]; FaSSIF, 1 h): 5.0 | pH ([1]; FaSSIF, 2 h): 5.1 | pH ([1]; FaSSIF, 4 h): 5.1 | pH ([1]; FaSSIF, 24 h): 5.0 | pH ([1]; FeSSIF, 1 h): 4.9 | pH ([1]; FeSSIF, 2 h): 4.9 | pH ([1]; FeSSIF, 4 h): 4.9 | pH ([1]; FeSSIF, 24 h): 4.8 | pH ([1]; H2O, 1 h): 4.0 | pH ([1]; H2O, 2 h): 4.0 | pH ([1]; H2O, 4 h): 4.0 | pH ([1]; H2O, 24 h): 4.0 | pH ([1]; SGF, 1 h): 2.9 | pH ([1]; SGF, 2 h): 3.0 | pH ([1]; SGF, 4 h): 3.0 | pH ([1]; SGF, 24 h): 2.9 | S: solubility ([2]; Buffer (pH=2.0)): >9500 µg/mL | S: solubility ([2]; Buffer (pH=7.4)): 2500 µg/mL | FC: crystal transfer ([2]; Buffer (pH=7.4)): Yes | FC: crystal transfer ([2]; Buffer (pH=7.4), listed as hydrochloride crystal form A): transformed into the free crystal form A | pH ([2]; Buffer (pH=2.0)): 3.5 | pH ([2]; Buffer (pH=4.5)): 4.4 | pH ([2]; Buffer (pH=7.4)): 6.2 | Hygroscopic weight gain (wt%) at 25°C/80% RH [3]: 0.47 wt% | Hygroscopic weight gain (wt%) at 25°C/80% RH [3, 8]: 0.47 wt% | Carr index [4]: 41% | Carr index [4, 8]: 41% | Average angle of repose (°) [4]: 33.9 ° | Average bulk density [4]: 0.14 g/mL | Average tapped density [4]: 0.24 g/mL | Average angle of repose (°) [4, 8]: 33.9 ° | Average bulk density [4, 8]: 0.14 g/mL | Average tapped density [4, 8]: 0.24 g/mL | Angle of repose (°) [4, 9]: 33.7 ° and 37.2 ° and 30.8 ° | Bulk density [4, 9]: 0.14 g/mL and 0.13 g/mL | Tapped density ([4]; tapped 200 times, single values of three parallel tests): 0.23 g/mL and 0.25 g/mL | Results of mechanical stability After grinding ([5]; manual grinding): The crystal form remains unchanged | Results of mechanical stability After tableting ([5]; tablet press, 350 MPa): The crystal form remains unchanged, but the crystallinity is slightly reduced | clinical observation ([6]; in vivo): no obvious abnormalities were found | k el ([6]; plasma, po, 6 mg/kg): 5.39e-05 s⁻¹ | Crystal form Transform ([7]; 25°C/60% RH/4 weeks, open): No | Purity (area%) ([7]; 25°C/60% RH/4 weeks, open): 99.88 area% | Crystal form Transform ([7]; 40°C/75% RH/4 weeks, open): No | Purity (area%) ([7]; 40°C/75% RH/4 weeks, open): 99.88 area% | Crystal form Transform ([7]; 80°C/1 d, closed): No | Area (%) ([7]; 25°C/60% RH/4 weeks): 99.88% | Area (%) ([7]; 40°C/75% RH/4 weeks): 99.88% | Area (%) ([7]; 80°C/1 d): 99.87%
